Source: patent publication US9290503B2, “Tricyclic compound derivatives useful in the treatment of neoplastic diseases, inflammatory disorders and immunomodulatory disorders” (CHEMBRIDGE CORPORATION, priority 2006, dated 2016)
Values belong to the compound of their own block, whether it stands above or below them.

What was measured:
normal cell line HEK293 = experiment: Myeloma-selective cytotoxicity (FIG. 11), HEK293; format: cell-based, human
Excerpt: (§1) All the above were active in the multiple myeloma cell line H929.

human myeloma cell lines [1] = experiment: Effect on cell cycle, PI staining; format: cell-based; settings: sensitive cell lines; 24 hours; 0.6 μM and 1.8 μM
Description: (§2) FIG. 6 depicts the effect of compound (2a) (i.e., CRL 103142) and compound (2b) (i.e., CRL 130323) on cell cycle. 4 human myeloma cell lines (3 sensitive and 1 resistant) were incubated for 24 hrs with indicated concentrations of compound (2a) and compound (2b) and effect on cell cycle was assessed by PI staining. Results are reported as percentage of cells in G0-G1 or S phase.
4 human myeloma cell lines (3 sensitive and 1 resistant) were incubated for 24 hours with the compounds of the invention, including compounds (2a) and (2b), with a concentration of 0.6 μM and 1.8 μM and effect on cell cycle was assessed by PI staining. Results are reported as percentage of cells in G0-G1 or S phase.

[2] = tested on: multiple myeloma cell line H929; experiment: Myeloma-selective cytotoxicity (FIG. 11), H929; format: cell-based, human
Excerpt: as §1

[3] = tested on: myeloma cells of primary patient sample; experiment: Induction of apoptosis in primary patient sample; format: cell-based, human; settings: for apoptosis of myeloma cells: primary patient sample
Excerpt: (§3) FIG. 8 depicts the apoptosis of myeloma cells induced by the compounds of the invention. Primary patient sample exposed to DMSO or compound (2a) (i.e., CRL 103142) or compound (2b) (i.e., CRL 130323) for 24 hr and indicated concentrations. LUQ-% viable myeloma cells and LLQ-% viable non-myeloma cells.
as §3, with “9” for “8”, “48” for “24”
as §3, with “10” for “8”, “96” for “24”
Primary patient sample exposed to DMSO or the compounds of the invention for 24 hours, 48 hours, and 96 hours and with a concentration of 0.4 μM, 0.6 μM, 1.2 μM, and 1.8 μM. LUQ-% viable myeloma cells and LLQ-% viable non-myeloma cells. The compounds of the invention included significant apoptosis of myeloma cells (FIGS. 8-10).

human myeloma cell lines [4] = experiment: Effect on apoptosis, PI/annexin V staining; format: cell-based; settings: sensitive cell lines; 48 or 72 hours; 0.6 μM and 1.8 μM
Description: as §2, with “7” for “6”, “apoptosis.” for “cell cycle.”, “48 or 72” for “24”, “apoptosis” for “cell cycle”, “PI/annexin V” for “PI”, “viable (PI−/annexin V−) cells.” for “cells in G0-G1 or S phase.”
4 human myeloma cell lines (3 sensitive and 1 resistant) were incubated for 48 or 72 hours with the compounds of the invention, including compounds (2a) and (2b), having a concentration of 0.6 μM and 1.8 μM and effect on apoptosis was assessed by PI/annexin V staining. Results are reported as percentage of viable (PI−/annexin V−) cells.

IGF1R tyrosine kinase = biological target: T1, IGF1R tyrosine kinase (Homo sapiens, UniProt P08069); experiment: IGF1R tyrosine kinase assay (Kinase-Glo ATP depletion or PT66/PT100 AlphaScreen); format: biochemical; settings: FIG. 12
T1 construct: purified recombinant, 6×His- or GST-tagged kinase domain fragments of the corresponding RTKs expressed in baculovirus system; host or cells: baculovirus system
Description: To determine inhibition of several tyrosine kinases, such as IGF1R, InsR, Alk, TrkA and Jak2, kinase assays are conducted using either Kinase-Glo (Promega) or AlphaScreen (PerkinElmer) kinase assay platforms. The Kinase-Glo Luminescent Kinase Assay is a homogeneous method for measuring kinase activity by determining the amount of ATP remaining after a kinase reaction. The luminescent signal is proportional to the amount of ATP and inversely proportional to the amount of kinase activity. Tyrosine kinase PT66 AlphaScreen Assay is a high-sensitivity homogeneous, anti-phosphotyrosine antibody-mediated luminescent proximity method measuring incorporation of phosphate in synthetic poly(Glu-Tyr) substrate. The kinase preparations used consist of purified recombinant, 6×His- or GST-tagged kinase domain fragments of the corresponding RTKs expressed in baculovirus system.
The IGF1R tyrosine kinase is assayed in Kinase-Glo ATP depletion assay using the synthetic polymer poly(Glu-Tyr, 4:1) (Sigma Chemicals) as a phosphoacceptor substrate. Each reaction mixture consists of a total volume of 10 μl and contains 40 ng of the enzyme, 5 μg of poly(Glu-Tyr), 10 μM of ATP and variable concentrations of test compounds. The mixtures also contain 50 mM Tris-HCl, pH 7.5; 5 mM MgCl2; 5 mM MnCl2; 2 mM DTT and 0.01% Tween 20. The reaction mixtures are incubated at 37° C. for 60 minutes and residual concentration of ATP in the mixture is determined by adding luciferase-containing Kinase-Glo (Promega) development reagent and counting luminescence levels using Fusion Universal Microplate Analyzer (PerkinElmer). Tested compounds are dissolved in dimethyl sulfoxide to a stock concentration of 10 mM and are typically evaluated in the assay at eight concentrations in 1 nM to 20 μM range, each in quadruplicate. […] IC50 values are derived by non-linear regression analysis using Prism 3.0 software (Graphpad Software). […]

normal cell line CHO = experiment: Myeloma-selective cytotoxicity (FIG. 11), CHO; format: cell-based, chinese hamster
Excerpt: as §1

[5] = Toxicity in animals, body weight (FIG. 13); format: in vivo; settings: highest doses tested
U266 = experiment: Cell proliferation assay, MTT, U266; format: cell-based; settings: Homo sapiens, U-266, 72 h, standard 3-day proliferation assay
Excerpt: (§4) IGF1R and other tyrosine kinase inhibitors can inhibit the proliferation of certain cancer cell lines indicating their possible therapeutic utility for treating the corresponding cancer types. Cancer cell lines of interest and control normal lines, including CHO, HEK293, BA/F3, COLO205, PC3, DU145, MCF7, Panc1, ACHN, Hep G2, H460, K562, TT, U87-MG, CAOV-3, SK-MEL5, Karpas 299 and human multiple myeloma cell lines H929, MM1s, MM1r, UTMC2, CPM2, KMS11, My5, KMS12PE, My7, JJN3, KMS18, U266, SKMM2, RPMI-8226 are plated in white, clear-bottomed 384-well cell culture plates at 2500-5000 cells per well and supplied with dilutions of tested compounds After a desired period of time (typically 3 days), the number of viable cells is quantitated by using Cell Titer-Glo Luminescent Cell Viability Assay (Promega), a cell proliferation assay system based on detection of total amount of ATP present as a measure of cell metabolic activity. The plated cells are mixed with the Cell Titer-Glo developing reagent and counted in a luminescence multiwell plate reader according to the standard manufacturer's protocol to generate IC50 curves for cell proliferation inhibition. […] Alternatively, viable cells are quantitated by using the conventional colorimetric MTT assay. […] The formazan is then solubilized, and the concentration determined by optical density at 570 nm. […]

[6] = tested on: HEK293 (human normal embryonic kidney); experiment: Cell proliferation assay, MTT, HEK293; format: cell-based; settings: HEK293, 72 h, standard 3-day proliferation assay, read-out: HEK IC50
Excerpt: as §4

KMS18 = experiment: Cell proliferation assay, MTT, KMS18; format: cell-based; settings: Homo sapiens, KMS18, 72 h, standard 3-day proliferation assay
Excerpt: as §4

H929 = experiment: Cell proliferation assay, MTT, H929; format: cell-based; settings: Homo sapiens, NCI-H929, 72 h, standard 3-day proliferation assay
Excerpt: as §4

My7 = experiment: Cell proliferation assay, MTT, My7; format: cell-based; settings: Homo sapiens, 72 h, standard 3-day proliferation assay
Excerpt: as §4

My5 = experiment: Cell proliferation assay, MTT, My5; format: cell-based; settings: Homo sapiens, 72 h, standard 3-day proliferation assay
Excerpt: as §4

UTMC2 = experiment: Cell proliferation assay, MTT, UTMC2; format: cell-based; settings: Homo sapiens, UTMC2, 72 h, standard 3-day proliferation assay
Excerpt: as §4

MM1r = experiment: Cell proliferation assay, MTT, MM1r; format: cell-based; settings: Homo sapiens, MM.1R, 72 h, standard 3-day proliferation assay
Excerpt: as §4

KMS11 = experiment: Cell proliferation assay, MTT, KMS11; format: cell-based; settings: Homo sapiens, KMS-11, 72 h, standard 3-day proliferation assay
Excerpt: as §4

SKMM2 = experiment: Cell proliferation assay, MTT, SKMM2; format: cell-based; settings: Homo sapiens, SK-MM-2, 72 h, standard 3-day proliferation assay
Excerpt: as §4

KMS12PE = experiment: Cell proliferation assay, MTT, KMS12PE; format: cell-based; settings: Homo sapiens, KMS-12-PE, 72 h, standard 3-day proliferation assay
Excerpt: as §4

JJN3 = experiment: Cell proliferation assay, MTT, JJN3; format: cell-based; settings: Homo sapiens, JJN-3, 72 h, standard 3-day proliferation assay
Excerpt: as §4

RPMI-8226 = experiment: Cell proliferation assay, MTT, RPMI-8226; format: cell-based; settings: Homo sapiens, RPMI-8226, 72 h, standard 3-day proliferation assay
Excerpt: as §4

CPM2 = experiment: Cell proliferation assay, MTT, CPM2; format: cell-based; settings: Homo sapiens, 72 h, standard 3-day proliferation assay
Excerpt: as §4

[7] = tested on: CHO (chinese hamster ovary); experiment: Cell proliferation assay, MTT, CHO; format: cell-based; settings: Cricetulus griseus, 72 h, standard 3-day proliferation assay
Excerpt: as §4

MM1s = experiment: Cell proliferation assay, MTT, MM1s; format: cell-based; settings: Homo sapiens, MM1.S, 72 h, standard 3-day proliferation assay
Excerpt: as §4

T1 sequence (P08069 999-1274 limits assumed): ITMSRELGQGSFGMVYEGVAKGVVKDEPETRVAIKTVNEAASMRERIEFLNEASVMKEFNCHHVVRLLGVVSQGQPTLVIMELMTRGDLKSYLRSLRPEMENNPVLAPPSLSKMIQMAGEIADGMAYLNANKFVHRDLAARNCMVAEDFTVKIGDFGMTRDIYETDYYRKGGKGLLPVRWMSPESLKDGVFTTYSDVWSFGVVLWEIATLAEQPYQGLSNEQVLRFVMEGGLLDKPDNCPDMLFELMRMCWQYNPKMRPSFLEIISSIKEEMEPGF

Compound: Cc1ccc(OC[C@H](O)CNc2cc[nH]c(=O)c2-c2nc3cc4c(cc3[nH]2)CN(C2CCN(C)CC2)C4=O)c(C)c1 [2a]
toxicity in normal cell line HEK293 (normal cell line HEK293): demonstrated toxicity
effect on cell cycle (percentage of cells in G0-G1 or S phase) (human myeloma cell lines [1]): induced significant G1 growth arrest
activity in multiple myeloma cell line H929 [2]: active
apoptosis of myeloma cells ([3]; 24 hr): induced significant apoptosis of myeloma cells
apoptosis of myeloma cells ([3]; 48 hr): induced significant apoptosis of myeloma cells
apoptosis of myeloma cells ([3]; 96 hr): induced significant apoptosis of myeloma cells
effect on apoptosis (percentage of viable PI−/annexin V− cells) (human myeloma cell lines [4]): induced significant apoptosis
IGF-1R potency in vitro (IGF1R tyrosine kinase): same potency range as known preclinical compounds
toxicity in normal cell line CHO (normal cell line CHO): demonstrated toxicity

Compound: Cc1ccc(OC[C@H](O)CNc2cc[nH]c(=O)c2-c2nc3cc4c(cc3[nH]2)CN(C2CCN(CCS(C)(=O)=O)CC2)C4=O)c(C)c1 [2b]
toxicity in normal cell line HEK293 (normal cell line HEK293): did not demonstrate toxicity
effect on cell cycle (percentage of cells in G0-G1 or S phase) (human myeloma cell lines [1]): induced significant G1 growth arrest
activity in multiple myeloma cell line H929 [2]: active
selectivity towards multiple myeloma lines [2]: highly selective
selectivity, viable myeloma cells versus viable non-myeloma cells ([3]; primary patient sample, 24, 48 and 96 hours): more selective
apoptosis of myeloma cells ([3]; 24 hr): induced significant apoptosis of myeloma cells
apoptosis of myeloma cells ([3]; 48 hr): induced significant apoptosis of myeloma cells
apoptosis of myeloma cells ([3]; 96 hr): induced significant apoptosis of myeloma cells
effect on apoptosis (percentage of viable PI−/annexin V− cells) (human myeloma cell lines [4]): induced significant apoptosis
toxicity in animals (body weight) [5]: no signs of toxicity
toxicity in animals (body weight) ([5]; listed as CRL130323): no observable toxicity
IGF-1R potency in vitro (IGF1R tyrosine kinase): same potency range as known preclinical compounds
IGF-1R potency in vitro (IGF1R tyrosine kinase; listed as CRL130323): comparable IGF-1R potency
toxicity in normal cell line CHO (normal cell line CHO): did not demonstrate toxicity

IC50 (U266): 1 to 5 µM
IC50 (H929): 1 to 5 µM
IC50 (MM1r): 1 to 5 µM
IC50 (SKMM2): 5 to 20 µM
IC50 (RPMI-8226): 5 to 20 µM
IC50 (MM1s): 1 to 5 µM
Compound: CC(=O)CCN1CCC(N2Cc3cc4nc(-c5c(NCC(=O)COc6ccc(C)cc6C)cc[nH]c5=O)[nH]c4cc3C2=O)CC1
IC50 [6]: ≥ 20 µM
IC50 (KMS18): 5 to 20 µM
IC50 (My7): 5 to 20 µM
IC50 (My5): 5 to 20 µM
IC50 (UTMC2): < 0.5 µM
IC50 (KMS11): 5 to 20 µM
IC50 (KMS12PE): 5 to 20 µM
IC50 (JJN3): 5 to 20 µM
IC50 (CPM2): 1 to 5 µM
IC50 [7]: ≥ 20 µM
